Experimental data reported in patent EP2061765B1, “Serine-threonine protein kinase and PARP modulators” (Senhwa Biosciences, Inc., priority 2006, dated 2008).

What was measured:
caspase-3 = assay: Caspase staining as biomarker in tumors; type: in vivo; conditions: 60 mg/kg by IV administration
Experimental: Caspase staining also was assessed as a biomarker for compound A1 treatment of tumors.

[1] = Pharmacokinetics after IV and PO dosing; conditions: for AUC(0-t) at 8 h: mouse, in vivo
Experimental: The pharmacokinetics properties of drugs were investigated in ICR mice following an intravenous (IV) bolus and oral (PO) doses of drug at 5 mg/kg and 25 mg/kg respectively. Blood samples were collected at predetermined times and the plasma separated. Plasma was separated from the blood samples collected at 5,15 and 30 minutes and 1, 2, 4, 8 and 24 hours post-dose.
Drug levels were quantified by the LC/MS/MS method described below. Noncompartmental pharmacokinetic analysis was applied for intravenous administration. […] The terminal t1/2 and Co were calculated using the last three and the first three data points, respectively
Bioanalysis was performed using a Quattro Micro LC/MS/MS instrument in the MRM detection mode, with an internal standard (IS). Briefly, 15 µL plasma samples were prepared for analysis using protein precipitation with 120 µL of acetonitrile. The supernatants were transferred into a 96 well plate and subjected to LC-MS/MS analysis using a Phenomenex Polar-RP HPLC column. The mobile phases were 10 mM NH4HCO3 in water (Solution-A) and 10 mM NH4HCO3 in methanol (Solution-B). […] Quantitation of the analytes was performed in the batch mode with two bracketing calibration curves according to the bioanalytical sample list

[2] = Distribution in plasma and tumors of animals; type: in vivo
Experimental: The distribution of compound A1 in the plasma and tumors of animals was assessed.

PC-3 xenografts = assay: Tumor suppression in xenograft mice; type: in vivo, NCr nu/nu mice; conditions: oral administration at 150 mg/kg
Experimental: (§1) Animals were handled under laminar-flow hoods.
(§2) Gemzar™ administered at a dose of 80 mg/kg IP Q3D was used as a positive control.

MCF-7 xenografts = assay: Tumor suppression in xenograft mice; type: in vivo, NCr nu/nu mice; conditions: oral administration at 100 mg/kg
Experimental: as §1, §2

MDA-MB-231 xenografts = assay: Tumor suppression in xenograft mice; conditions: IV at 30 and 60 mg/kg and oral at 200 mg/kg
BC-PC3 cells = assay: Tumor suppression in xenograft mice; conditions: 60mg/kg QD IV, 100mg/kg BID IP, 50mg/kg BID IV, Figure 4A
[3] = Body weight of tumor-bearing xenograft mice; type: in vivo, NCr nu/nu mice; conditions: BC-PC3 xenograft mice; Figure 4B
[4] = Tumor pharmacokinetic study; conditions: 30 mg/kg IV QDx6
Source text: Plasma, blood and tumor samples were taken on day 1,4 and 6 and three animals sacrificed for each time point.

MiaPaca xenografts = assay: Tumor suppression in xenograft mice; type: in vivo, NCr nu/nu mice
Experimental: as §1, §2

MCF-10A = assay: Cell proliferation assay (Alamar Blue); type: cell-based; conditions: Homo sapiens, 96 h, MCF-10A cells, four days
Summary of the method: (§3)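 Cells plated at 4,000-5,000 per well, then exposed to compound for four days at 37°C, 5% CO2. Alamar Blue added for a further 4 h; fluorescence read at ex 544/em 590 nm. Medium-only wells served as blank, cells without compound as untreated control.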

PanC1 = assay: Cell proliferation assay (Alamar Blue); type: cell-based; conditions: Homo sapiens, PANC-1, 96 h, PanC1 cells, four days
Summary of the method: as §3

COLO205 = assay: Cell proliferation assay (Alamar Blue); type: cell-based; conditions: Homo sapiens, COLO 205, 96 h, COLO205 cells, four days
Summary of the method: as §3

SK-OV-3 = assay: Cell proliferation assay (Alamar Blue); type: cell-based; conditions: Homo sapiens, 96 h, SK-OV-3 cells, four days
Summary of the method: as §3

H460 = assay: Cell proliferation assay (Alamar Blue); type: cell-based; conditions: Homo sapiens, NCI-H460, 96 h, H460 cells, four days
Summary of the method: as §3

BxPC3 = assay: Cell proliferation assay (Alamar Blue); type: cell-based; conditions: Homo sapiens, BXPC-3, 96 h, BxPC3 cells, four days
Summary of the method: as §3

HT29 = assay: Cell proliferation assay (Alamar Blue); type: cell-based; conditions: Homo sapiens, HT-29, 96 h, HT29 cells, four days
Summary of the method: as §3

HL-60/MX2 = assay: Cell proliferation assay (Alamar Blue); type: cell-based; conditions: Homo sapiens, HL60/MX2, 96 h, HL-60/MX2 cells, four days
Summary of the method: as §3

endogenous CK2 = endogenous CK2 (Homo sapiens, UniProt P68400); assay: Modulation of endogenous CK2 activity in Jurkat cells; type: cell-based; conditions: drug for two hours
Chain of endogenous CK2 (P68400 whole entry): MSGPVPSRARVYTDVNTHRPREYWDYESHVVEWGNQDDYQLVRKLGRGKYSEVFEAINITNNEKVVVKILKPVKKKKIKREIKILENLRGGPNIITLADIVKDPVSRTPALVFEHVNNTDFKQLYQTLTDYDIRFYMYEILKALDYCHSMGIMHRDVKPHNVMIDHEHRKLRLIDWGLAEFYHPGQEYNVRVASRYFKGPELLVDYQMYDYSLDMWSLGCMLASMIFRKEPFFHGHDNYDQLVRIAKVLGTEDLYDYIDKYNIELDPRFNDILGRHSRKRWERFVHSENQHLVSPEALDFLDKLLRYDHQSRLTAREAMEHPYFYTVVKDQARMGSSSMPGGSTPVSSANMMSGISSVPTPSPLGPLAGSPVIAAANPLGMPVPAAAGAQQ
Chain of endogenous CK2 (P67870 2-215, further chain): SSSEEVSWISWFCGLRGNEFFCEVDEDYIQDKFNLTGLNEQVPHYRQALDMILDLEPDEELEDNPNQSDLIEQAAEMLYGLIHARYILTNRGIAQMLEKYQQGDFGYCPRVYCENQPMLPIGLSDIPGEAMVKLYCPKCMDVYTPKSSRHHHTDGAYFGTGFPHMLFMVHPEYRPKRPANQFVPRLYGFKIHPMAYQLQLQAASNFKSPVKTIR
Experimental: Before treatment cells were washed, resuspended at a density of about 10^6 cells/milliliter in medium containing 1% fetal calf serum and incubated in the presence of indicated mounts of drug for two hours. […] To 20 microliters of diluted protein was added 10 microliters of substrate peptide ([sequence], dissolved in ADB at a concentration of 1 mM) and 10 microliters of PKA Inhibitor cocktail (Upstate).

Question: Which results are given for `O=C(O)c1ccc2c(c1)nc(Nc1cccc(Cl)c1)c1ccncc12` [A1]?
Answer: caspase-3 cell staining levels versus untreated control cells (caspase-3): four-fold greater; CLs ([1]; ICR mice, IV 5 mg/kg): 1.5 L/h/kg; Kel ([1]; ICR mice, IV 5 mg/kg): 0.1586 h⁻¹; Kel ([1]; ICR mice, PO 25 mg/kg): 0.1076 h⁻¹; AUC(0-t) at 8 h ([1]; iv, 5 mg/kg): 2.91 µg·h/mL; AUC(0-t) at 8 h ([1]; po, 25 mg/kg): 1.58 µg·h/mL; compound identified in tumors ([2]; 30 mg/kg IV): about 42.9 micromolar; compound identified in tumors ([2]; 60 mg/kg IV): ~7.0 µM; compound identified in plasma ([2]; 200 mg/kg orally): ~9.5 µM; compound identified in tumors ([2]; 200 mg/kg orally): ~6.4 µM; tumor growth (PC-3 xenografts): significantly inhibited tumor growth; tumor growth (MCF-7 xenografts): significantly inhibited tumor growth

Question: For `C#Cc1cccc(Nc2nc3cc(C(=O)O)ccc3c3cncnc23)c1` [A2], which tumor progression (MDA-MB-231 xenografts) is on record?
Answer: significantly inhibited tumor progression

Question: And the tumor progression (BC-PC3 cells)?
Answer: significantly inhibited tumor progression

Question: And the body weight [3]?
Answer: not significantly altering body weight

Question: And the “half life on repeated dosing” value [4]?
Answer: about doubles

Question: And the “minimum concentration after six days” value [4]?
Answer: 4-5 times higher

Question: What about the “terminal slope on repeated dosing” value [4] of the same molecule?
Answer: decreases

Question: And the tumor progression (MiaPaca xenografts; IV at 50 and 60 mg/kg and IP at 100 mg/kg)?
Answer: significantly inhibited tumor progression

Question: What about the tumor progression (MiaPaca xenografts; oral 100 mg/kg QDx8 and 200 mg/kg QDx6, meglumine salt) of the same molecule?
Answer: significantly inhibited tumor progression

Question: Which IC50 (MCF-10A) does the source give for `O=C(O)c1ccc2c(c1)nc(Nc1ccccc1)c1ccncc12` [drawing 443] here?
Answer: 3.84 µM

Question: What about the IC50 (PanC1) of the same molecule?
Answer: > 50 µM

Question: And the IC50 (COLO205)?
Answer: 8.92 µM

Question: And the IC50 (SK-OV-3)?
Answer: 20.7 µM

Question: And the IC50 (H460)?
Answer: 37.5 µM

Question: And the IC50 (BxPC3)?
Answer: 10.8 µM

Question: With `O=C(O)c1ccc2c(c1)nc(Nc1cccc(Cl)c1)c1ccncc12` [drawing 448] as the molecule, how does the IC50 (MCF-10A) read?
Answer: 0.53 µM

Question: And the IC50 (PanC1)?
Answer: 17.8 µM

Question: And the IC50 (COLO205)?
Answer: 1.96 µM

Question: And the IC50 (SK-OV-3)?
Answer: 9.03 µM

Question: What about the IC50 (H460) of the same molecule?
Answer: 10.3 µM

Question: What about the IC50 (BxPC3) of the same molecule?
Answer: 2.75 µM

Question: And the IC50 (HT29)?
Answer: 1.56 µM

Question: What about the IC50 (HL-60/MX2) of the same molecule?
Answer: 10.5 µM

Question: Which results are given for `O=C(O)c1ccc2c(c1)nc(Nc1cc(F)cc(F)c1)c1ncncc12` [drawing 449]?
Answer: IC50 (MCF-10A): 1.08 µM; IC50 (PanC1): 9.34 µM; IC50 (COLO205): 5.69 µM; IC50 (SK-OV-3): 6.98 µM; IC50 (H460): 4.19 µM; IC50 (BxPC3): 3.34 µM; IC50 (HT29): 12.4 µM

Question: Which IC50 (MCF-10A) does the source give for `C#Cc1cccc(Nc2nc3cc(C(=O)O)ccc3c3cncnc23)c1` [drawing 452] here?
Answer: 0.64 µM

Question: And the IC50 (PanC1)?
Answer: 2.34 µM

Question: What about the IC50 (COLO205) of the same molecule?
Answer: 7.04 µM

Question: What about the IC50 (SK-OV-3) of the same molecule?
Answer: 20.2 µM

Question: What about the IC50 (H460) of the same molecule?
Answer: 7.33 µM

Question: And the IC50 (BxPC3)?
Answer: 2.58 µM

Question: And the IC50 (HT29)?
Answer: 12.4 µM

Question: And the IC50 (HL-60/MX2)?
Answer: 8.81 µM

Question: Which IC50 (PanC1) does the source give for `CNc1ncc2c(n1)c(Nc1ccccc1)nc1cc(C(=O)O)ccc12` [drawing 455] here?
Answer: 15.9 µM

Question: And the IC50 (COLO205)?
Answer: 9.56 µM

Question: What about the IC50 (SK-OV-3) of the same molecule?
Answer: 1.06 µM

Question: And the IC50 (H460)?
Answer: 4.06 µM

Question: And the IC50 (BxPC3)?
Answer: 1.83 µM

Question: What about the IC50 (HT29) of the same molecule?
Answer: 15.3 µM

Question: What about the IC50 (HL-60/MX2) of the same molecule?
Answer: 5.68 µM

Question: For `C#Cc1cccc(Nc2nc3cc(C(=O)O)ccc3c3cnccc23)c1` [drawing 457], which IC50 (MCF-10A) is on record?
Answer: 0.73 µM

Question: What about the IC50 (PanC1) of the same molecule?
Answer: 4.07 µM

Question: What about the IC50 (COLO205) of the same molecule?
Answer: 4.44 µM

Question: And the IC50 (SK-OV-3)?
Answer: 23.4 µM

Question: And the IC50 (H460)?
Answer: 13.8 µM

Question: What about the IC50 (BxPC3) of the same molecule?
Answer: 3.7 µM

Question: And the IC50 (HT29)?
Answer: 45.5 µM

Question: With `COC(=O)c1ccc2c(c1)nc(Nc1ccc(F)c(Cl)c1)c1ncncc12` [drawing 523] as the molecule, how does the IC50 (endogenous CK2) read?
Answer: > 50 µM
